# Assay results from paper PMC12951568, “Identifying Structural Factors Governing the Photodynamic Activity of Phthalocyanines” (Journal of Medicinal Chemistry, 2026).
# Values joined by “and” are separate entries in the source; they are usually repeats but may differ in a detail not shown here. Equal entries are not always repeated.
# What was measured:
# [1] = Quantum yield of singlet oxygen production, comparative method with DPBF scavenger; type: physicochemical; settings: in DMF, ZnPc as reference
# Description: Eight μL of the 100 μM stock solution of the dye in DMF (or DMF + water or water; see above) was added. A xenon lamp (100 W, ozone free XE DC short arc lamp, New port) was used to irradiate the sample while stirring. The incident light was filtered through a water filter (6 cm) and cut off filter OG530 eliminating heat and light under 523 nm, respectively. […] The decrease of DPBF in solution with irradiation time was monitored at 415 nm. The values of ΦΔ of the dyes were calculated by the following equation: φΔS=φΔ[…] is the slope of the plot of the dependence of ln([…] 0 and A t being the absorbances of the DPBF at 415 nm before irradiation and after irradiation time t, respectively. I aT is the total amount of light absorbed by the dye sample. Superscripts R and S indicate the reference and sample, respectively. I aT is calculated as a sum of intensities of the absorbed light I a at wavelengths from 523 to 850 nm (step 0.5 nm). Light under 523 nm is completely filtered by an OG530 filter, and light above 850 nm is not absorbed by the studied dye sample. I a at a given wavelength is calculated using Beer-Lambert'[…]) where I 0 is transmittance of the filter at the given wavelength and A is the absorbance of the dye at this wavelength. All experiments were performed three times, and the data presented is the mean value of the three obtained results with estimated error ± 10%.
# [2] = Fluorescence lifetime in DMF; type: physicochemical
# Text: 1 Photophysical Data of Investigated Derivatives in DMF ^a | column: τF1/ns; τF2/ns
# [3] = biological target: bovine serum albumin (BSA) (Bos taurus, UniProt P02769); test: Interaction with bovine serum albumin (absorption and emission spectra in PBS); type: binding; settings: 1 μM Pc in PBS, BSA 17.5, 35 and 100 μM
# [4] = tested on: HeLa (human cervical carcinoma); test: Photodynamic activity (phototoxicity, neutral red uptake) on HeLa; type: cell-based; settings: 12 h incubation, Xe-lamp 15 min, λ > 570 nm, 11.2 J/cm^2; mean ± SD; t.w. = this work
# Description: (§1) Detailed in vitro studies involving subcellular localization and determination of the EC50 in three different cell lines (human cervical carcinoma–HeLa, human breast adenocarcinoma–MCF-7, and human skin melanoma–SK-MEL-28) were performed. A broadband light source (ozone-free 450 W Xe-lamp, Newport) equipped with the long-pass filter Schott OG570 was used (12.4 mW/cm^2, 15 min, 11.2 J/cm^2).
# (§2) For the cytotoxicity experiments (phototoxicity), cells were seeded at 100 μL per well into 96-well plates (TPP, Switzerland) at a density of 7.5 × 10^3 (HeLa) or 1.0 × 10^4 (MCF-7 and SK-MEL-28) cells per well. Cells were left to grow for 24 h (until they reached confluency) in a controlled environment of a CO2 incubator (37 °C, 5% CO2 atmosphere, constant high humidity). Subsequently, studied compounds were added in a wide concentration range and incubated with the cells for 12 h. Cells were washed; fresh cell culture medium was added, and the cells were irradiated using a 450 W Xe lamp (Newport, USA). The lamp was equipped with a long pass filter (Newport OG570) and an 8 cm water filter (λ > 570 nm, 12.4 mW/cm^2, 15 min, 11.2 J/cm^2). Cellular viability was assessed after an additional 24 h by the neutral red (NR; Sigma, Merck, USA) uptake assay. At least three independent experiments, each in triplicate, were performed. The soluble NR was measured at λ = 540 nm using a Tecan Infinite 200 M plate reader (Tecan, Austria). The viability of each experimental group was expressed as the percentage of the untreated cells (100% viability) after subtraction of the signal from cells treated with a lethal dose of hydrogen peroxide (0% viability). […] EC50 values were calculated, and graphs were created by using GraphPad Prism 10.3.1 (Graph Pad software, USA).
# [5] = tested on: MCF-7 (human breast adenocarcinoma); test: Photodynamic activity (phototoxicity, neutral red uptake) on MCF-7; type: cell-based; settings: 12 h incubation, Xe-lamp 15 min, λ > 570 nm, 11.2 J/cm^2; mean ± SD; t.w. = this work
# Description: as §1, §2
# [6] = tested on: SK-MEL-28 (human skin melanoma); test: Photodynamic activity (phototoxicity, neutral red uptake) on SK-MEL-28; type: cell-based; settings: 12 h incubation, Xe-lamp 15 min, λ > 570 nm, 11.2 J/cm^2; mean ± SD; t.w. = this work
# Description: as §1, §2
# [7] = Absorption and fluorescence emission spectra in DMF; type: physicochemical; settings: in DMF
# Description: An absorption spectrum of 2.475 mL of solvent (water, DMF, or PBS) was taken (i.e., absorption spectrum of baseline); then, 25 μL of stock solution was added to reach the final concentration of 1 μM in the cuvette, and the absorption and emission spectra were taken. Baseline of the solvent was subtracted from the obtained absorption spectrum to get the final absorption spectrum of the sample.
# [8] = Fluorescence quantum yield, comparative method; type: physicochemical; settings: in DMF; ZnPc as reference
# Description: The fluorescence quantum yields (ΦF) were determined by a comparative method with ZnPc as the reference (ΦF = 0.32 in THF). The ΦF values were calculated using the following formula: ϕFS=ϕFR(F^S/F^R)(1−10^−A^R/1−10^−A^S)(η^S/η^R)^2 where F is the integrated area under the emission spectrum and A is the absorbance at the excitation wavelength. Superscripts R and S indicate the reference and sample, respectively. η stands for the refractive index of the solvent. Absorption in the Q-band was kept below 0.05 to eliminate the inner filter effect. Excitation wavelengths were the same as those used for emission spectra (see above). The emission wavelengths were set to their emission maxima to avoid exceeding the detector limit with stimated error ± 15%.
# [9] = Log P, partition between n-octanol and PBS; type: physicochemical; settings: partition coefficient between 1-octanol and PBS
# Description: 400 μL portion of n-octanol and 400 μL of PBS buffer were mixed in a plastic Eppendorf vial. Then, 20 μL of the 100 μM stock solution of the sample (see above) was added to this mixture, vortexed for 5 min at rt, and then centrifuged for 10 min (10 000 rpm, rt). 50 μL of each of these layers was taken into 2.5 mL of DMF in a quartz cuvette, and their emission spectra (excitation wavelengths in Table ) were recorded. The log P value was then computed using the area under the curve of the emission spectra of n-octanol (F oct) and PBS buffer (F PBS) layers as follows: logP=log(Foct/FPBS) Triplicate measurements were performed, and the data reported are the mean of the obtained results.
# Sequence of bovine serum albumin (BSA) (P02769 25-607): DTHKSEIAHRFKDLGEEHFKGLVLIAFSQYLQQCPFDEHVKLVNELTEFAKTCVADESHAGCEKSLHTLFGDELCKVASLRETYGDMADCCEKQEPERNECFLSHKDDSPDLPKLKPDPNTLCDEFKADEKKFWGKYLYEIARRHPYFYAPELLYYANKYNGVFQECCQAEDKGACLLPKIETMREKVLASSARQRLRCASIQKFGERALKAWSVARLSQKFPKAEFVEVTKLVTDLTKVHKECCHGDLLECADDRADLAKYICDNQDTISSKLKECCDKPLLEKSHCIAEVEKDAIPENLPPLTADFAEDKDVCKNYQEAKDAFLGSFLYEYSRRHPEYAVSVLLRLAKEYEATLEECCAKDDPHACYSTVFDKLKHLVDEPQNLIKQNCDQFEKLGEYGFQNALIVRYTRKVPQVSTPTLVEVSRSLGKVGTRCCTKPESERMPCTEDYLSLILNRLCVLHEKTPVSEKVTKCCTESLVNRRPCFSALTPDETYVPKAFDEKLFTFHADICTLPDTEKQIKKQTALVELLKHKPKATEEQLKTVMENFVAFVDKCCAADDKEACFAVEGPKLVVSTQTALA
Structure (SMILES),"ΦΔ, quantum yield of singlet oxygen production [1]","τF1, fluorescence lifetime (relative amplitude in brackets) [2]","τF2, fluorescence lifetime (relative amplitude in brackets) [2]",Interaction with BSA: disaggregation/monomerization and changes in absorption and fluorescence emission spectra [3],EC50 [4],EC50 [5],EC50 [6],"ε, extinction coefficient [7]","λA, absorption maximum in the Q-band [7]","λF, fluorescence emission maximum [7]","ΦF, fluorescence quantum yield [8]",Log P [9]
OCc1cc(CO)cc(OCCCCSC2=C(SCCCCOc3cc(CO)cc(CO)c3)C3=Nc4c5ccccc5c5[n]4[Mg][n]4c(c6ccccc6c4=NC4=NC(=N5)c5ccccc54)=NC2=N3)c1 [N2Mg],0.17,1.29 (25%) ns,3.39 (75%) ns,fluorescence was slightly enhanced,107 ± 1 nM,190 ± 40 nM,119 ± 14 nM,15 950 M^–1cm^–1,684 nm,687 nm,0.16,–
NCCc1ccc(Oc2cccc3c2C2=NC3=Nc3c4ccccc4c4[n]3[Zn][n]3c(c5ccccc5c3=N2)=NC2=NC(=N4)c3ccccc32)cc1 [C15Zn],0.53,1.23 (7%) ns,2.96 (93%) ns,Partial monomerization,74 ± 22 nM,50 ± 8 nM,25 ± 6 nM,136 590 M^–1cm^–1,675 nm,684 nm,0.20,3.32
C[n+]1cccc(Oc2ccc3c(c2)C2=NC3=Nc3c4cc(Oc5ccc[n+](C)c5)ccc4c4[n]3[Zn][n]3c(c5ccc(Oc6ccc[n+](C)c6)cc5c3=NC3=NC(=N4)c4cc(Oc5ccc[n+](C)c5)ccc43)=N2)c1.F[P-](F)(F)(F)(F)F.F[P-](F)(F)(F)(F)F.F[P-](F)(F)(F)(F)F.F[P-](F)(F)(F)(F)F [C5Zn-PF 6],0.45,2.32 (97%) ns,6.31 (3%) ns,–,52 ± 26 nM,100 ± 20 nM,190 ± 40 nM,86 800 M^–1cm^–1,674 nm,682 nm,0.28,–2.37
C[n+]1cccc(Oc2ccc3c(c2)C2=NC3=Nc3c4cc(Oc5ccc[n+](C)c5)ccc4c4[n]3[Zn][n]3c(c5ccc(Oc6ccc[n+](C)c6)cc5c3=NC3=NC(=N4)c4cc(Oc5ccc[n+](C)c5)ccc43)=N2)c1.[I-].[I-].[I-].[I-] [C5Zn-I],0.49,2.38 (97%) ns,6.53 (3%) ns,–,62 ± 13 nM,60 ± 10 nM,110 ± 10 nM,130 860 M^–1cm^–1,674 nm,682 nm,0.25,–2.19
C[n+]1cccc(Oc2ccc3c(c2)C2=NC3=Nc3c4cc(Oc5ccc[n+](C)c5)ccc4c4[n]3[Zn][n]3c(c5ccc(Oc6ccc[n+](C)c6)cc5c3=NC3=NC(=N4)c4cc(Oc5ccc[n+](C)c5)ccc43)=N2)c1.O=S(=O)(O)O.O=S(=O)(O)O.O=S(=O)([O-])[O-].O=S(=O)([O-])[O-] [C5Zn-SO 4],0.28,2.47 (94%) ns,4.93 (6%) ns,–,53 ± 9 nM,80 ± 30 nM,150 ± 50 nM,82 140 M^–1cm^–1,674 nm,682 nm,0.077 and 0.08,–3.57
O=S(=O)([O-])c1cc(S(=O)(=O)[O-])c2cc(Oc3cccc4c3C3=NC4=Nc4c5c(Oc6ccc7cc(S(=O)(=O)[O-])cc(S(=O)(=O)[O-])c7c6)cccc5c5[n]4[Zn][n]4c(c6cccc(Oc7ccc8cc(S(=O)(=O)[O-])cc(S(=O)(=O)[O-])c8c7)c6c4=NC4=NC(=N5)c5c(Oc6ccc7cc(S(=O)(=O)[O-])cc(S(=O)(=O)[O-])c7c6)cccc54)=N3)ccc2c1.[Na+].[Na+].[Na+].[Na+].[Na+].[Na+].[Na+].[Na+] [A7Zn],0.55,–,–,complete,1300 ± 400 nM,5100 ± 350 nM,2120 ± 560 nM,109 950 M^–1cm^–1,696 nm,707 nm,0.23,–2.92
COCCOCCOCCOCCOc1ccc(OCCOCCOCCOCCOC)c2c1C1=NC2=Nc2c3ccccc3c3[n]2[Zn][n]2c(c4ccccc4c2=N1)=NC1=NC(=N3)c2ccccc21 [N1Zn],0.67,2.41 ns,–,monomerization was apparent even from the absorption spectra,17 ± 5 nM,6 ± 1 nM,16 ± 3 nM,82 550 M^–1cm^–1,689 nm,702 nm,0.24,–
